Where “and” joins values, the source holds several entries; their conditions need not be identical. Equal entries are not always repeated. Each block holds one compound with its values, some of them ahead of it.
How the values were obtained:
[1] = target: T1, human HERG K+ channel (Homo sapiens, UniProt Q12809); experiment: HERG Assay, [3H]astemizole radioligand binding; settings: transfected HEK-293 cell membranes, 2 nM [3H]astemizole
T1 construct: expressed in transfected cells; host or cells: HEK-293
Experimental: Evaluation of the affinity of compounds for the human HERG K^+ channel in transfected HEK-293 cells is determined in a radioligand binding assay. Cell membrane homogenates (40 μg protein) are incubated for 75 min at 22° C. with 2 nM [^3H]astemizole in the absence or presence of the test compound in a buffer containing 50 mM Tris-HCl (pH 7.4), 10 mM KCl, 1.2 mM MgCl2 and 0.1% Bovine serum albumin (BSA). Nonspecific binding is determined in the presence of 10 μM astemizole. Following incubation, the samples are filtered rapidly under vacuum through glass fiber filters (GF/B, Packard) presoaked with 0.3% PEI and rinsed several times with ice-cold 50 mM Tris-HCl using a 96-sample cell harvester (Unifilter, Packard). The filters are dried then counted for radioactivity in a scintillation counter (Topcount, Packard) using a scintillation cocktail (Microscint 0, Packard). The results are expressed as a percent inhibition of the control radioligand specific binding. The standard reference compound is astemizole, which is tested in each experiment at several concentrations to obtain a competition curve from which its IC50 is calculated. (Finalayson et al, [^3H]dofetilide binding in SHSYSY and HEK293 cells expressing a HERG-like K^+ channels, Eur. J. Pharmacol., 412: 203 (2001)).

[2] = tested on: 786-0; experiment: Combination studies, fixed ratio method, cell proliferation, 786-0; format: cell-based; settings: combination with Rapamycin
From the text: (§1) The combination studies use the fixed ratio method, where the compound of the present invention and the other therapeutic agent are present in fixed ratios of concentrations corresponding to the IC50 equivalents of single agents. The readout for the combination studies is cell proliferation in respective cell lines using Cell Titer Glo reagents. Controls are processed similarly but without the compound of the present invention or the other therapeutic agent. Analysis of the data is done according to the method described in Zhao et. al., Clinical Cancer Research, 10, 7994-8004 (2004) utilizing a web based tool. A combination index is calculated for a range of cell proliferation inhibition activity levels according to the equation below. Combination Index at activity level x=[Concentration of other therapeutic agent in the combination at the activity level x/ICx of the other therapeutic agent]+[Concentration of the compound of the present invention in the combination at the activity level x/ICx of the compound of the present invention] For clarity, Combination index values at 50% inhibition are summarized below.

[3] = tested on: CAKI-1; experiment: Combination studies, fixed ratio method, cell proliferation, CAKI-1; format: cell-based; settings: combination with Rapamycin
From the text: as §1

[4] = tested on: HCT116; experiment: Combination studies, fixed ratio method, cell proliferation, HCT116; format: cell-based
From the text: as §1

[5] = tested on: 786-O; experiment: Cell Proliferation Assay (CellTiter-Glo), 786-O; format: cell-based; settings: Homo sapiens, 786-0, 72 hr
Experimental: (§2) The proliferation assay uses the CellTiter-Glo Luminescent Cell Viability Assay System (commercially available from Promega) to determine the cell number of viable cells in culture based on quantitation of the ATP present, which signals the presence of metabolically active cells.
(§3) The cells are plated in 96-well plate at 2000 cells/well in volume of 50 μL medium (DMEM, 10% FBS, 25 mM HEPES, 1.0 mM Sodium Pyruvate, and 0.1 mM Non Essential Amino Acids) except column 1 with medium only as blank control. The plates are incubated overnight at 37° C. and 5% CO2. On the next day, compound stocks are prepared at 40 mM in DMSO (500×) and serially diluted in DMSO in a 96-well round bottom polypropylene plate. Compounds are assayed at 10 concentrations in duplicate, 4 compounds per plate.
(§4) 4 μL of the serial DMSO dilutions are transferred to a 96 deep-well plate and 1 mL complete culture medium is added to create 2× stock for dosing. 50 μL of each 2× dosing stock is gently transferred to the corresponding well of the cell plate resulting in a 0.2% DMSO concentration and a 100 μL final volume. […] medium are added to the Control columns (Column 12) and background columns (Column 1). Cells are incubated with compound for at 37° C., 5% CO2 for 72 hr. […]

[6] = tested on: A2780; experiment: Combination studies, fixed ratio method, cell proliferation, A2780; format: cell-based
From the text: as §1

[7] = tested on: PC3; experiment: Cell Proliferation Assay (CellTiter-Glo), PC3; format: cell-based; settings: Homo sapiens, PC-3; PC3, 72 hr
Experimental: as §2, §3, §4

[8] = tested on: H1155; experiment: Cell Proliferation Assay (CellTiter-Glo), H1155; format: cell-based; settings: Homo sapiens, NCI-H1155; H1155, 72 hr
Experimental: as §2, §3, §4

[9] = tested on: H1155; experiment: Combination studies, fixed ratio method, cell proliferation, H1155; format: cell-based
From the text: as §1

[10] = tested on: BT474; experiment: Cell Proliferation Assay (CellTiter-Glo), BT474; format: cell-based; settings: Homo sapiens, BT-474; BT474, 72 hr
Experimental: as §2, §3, §4

[11] = tested on: NCIH460; experiment: Combination studies, fixed ratio method, cell proliferation, NCIH460; format: cell-based
From the text: as §1

[12] = tested on: U87MG; experiment: Cell Proliferation Assay (CellTiter-Glo), U87MG; format: cell-based; settings: Homo sapiens, U-87 MG, 72 hr
Experimental: as §2, §3, §4

[13] = tested on: HCT116; experiment: Cell Proliferation Assay (CellTiter-Glo), HCT116; format: cell-based; settings: Homo sapiens, HCT-116; HCT116, 72 hr
Experimental: as §2, §3, §4

[14] = tested on: 69AR; experiment: Cell Proliferation Assay (CellTiter-Glo), 69AR; format: cell-based; settings: 72 hr
Experimental: as §2, §3, §4

[15] = tested on: OPM-2; experiment: Cell Proliferation Assay (CellTiter-Glo), OPM-2; format: cell-based; settings: Homo sapiens; OPM-2, 72 hr
Experimental: as §2, §3, §4

[16] = tested on: A2780; experiment: Cell Proliferation Assay (CellTiter-Glo), A2780; format: cell-based; settings: Homo sapiens; A2780, 72 hr
Experimental: as §2, §3, §4

[17] = tested on: H69; experiment: Cell Proliferation Assay (CellTiter-Glo), H69; format: cell-based; settings: Homo sapiens, NCI-H69; H69, 72 hr
Experimental: as §2, §3, §4

[18] = tested on: ACHN; experiment: Combination studies, fixed ratio method, cell proliferation, ACHN; format: cell-based; settings: combination with Rapamycin
From the text: as §1

[19] = tested on: Calu6; experiment: Combination studies, fixed ratio method, cell proliferation, Calu6; format: cell-based
From the text: as §1

T1 sequence (Q12809 whole entry): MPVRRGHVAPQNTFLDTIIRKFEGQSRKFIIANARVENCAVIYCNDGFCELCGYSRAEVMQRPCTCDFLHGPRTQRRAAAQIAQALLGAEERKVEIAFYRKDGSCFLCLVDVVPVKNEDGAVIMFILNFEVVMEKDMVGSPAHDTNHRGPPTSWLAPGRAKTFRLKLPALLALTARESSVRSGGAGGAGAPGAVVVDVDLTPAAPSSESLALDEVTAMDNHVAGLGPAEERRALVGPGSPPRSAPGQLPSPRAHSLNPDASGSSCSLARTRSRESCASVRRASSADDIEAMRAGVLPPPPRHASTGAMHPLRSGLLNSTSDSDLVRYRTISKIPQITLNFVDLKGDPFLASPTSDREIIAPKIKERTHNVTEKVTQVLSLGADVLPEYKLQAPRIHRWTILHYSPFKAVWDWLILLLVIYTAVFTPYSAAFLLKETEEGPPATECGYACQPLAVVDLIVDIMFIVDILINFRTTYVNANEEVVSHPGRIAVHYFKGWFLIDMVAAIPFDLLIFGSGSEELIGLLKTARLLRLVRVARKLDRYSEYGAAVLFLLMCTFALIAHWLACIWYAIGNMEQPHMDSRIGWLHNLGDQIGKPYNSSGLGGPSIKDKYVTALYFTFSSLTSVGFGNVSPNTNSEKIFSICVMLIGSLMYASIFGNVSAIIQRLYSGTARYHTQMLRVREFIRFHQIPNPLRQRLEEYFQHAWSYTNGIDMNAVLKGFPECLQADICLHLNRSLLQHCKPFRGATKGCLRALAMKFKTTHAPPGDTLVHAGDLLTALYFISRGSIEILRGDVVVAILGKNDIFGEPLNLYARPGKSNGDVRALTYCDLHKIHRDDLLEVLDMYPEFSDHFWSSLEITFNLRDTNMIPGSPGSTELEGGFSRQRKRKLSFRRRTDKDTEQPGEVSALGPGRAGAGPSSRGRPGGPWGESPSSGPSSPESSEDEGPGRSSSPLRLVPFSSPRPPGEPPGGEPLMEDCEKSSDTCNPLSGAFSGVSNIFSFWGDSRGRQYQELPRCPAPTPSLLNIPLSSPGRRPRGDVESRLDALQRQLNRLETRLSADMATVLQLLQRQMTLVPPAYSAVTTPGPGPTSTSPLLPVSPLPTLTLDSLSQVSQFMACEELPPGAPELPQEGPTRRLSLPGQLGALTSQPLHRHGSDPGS

Compound: O=C1Cc2c(ncnc2N2CCC(c3nc(-c4ccc(F)c(F)c4)cn3CCN3CCCC3)CC2)N1 [Example 37, 4-{4-[4-(3,4-Difluoro-phenyl)-1-(2-pyrrolidin-1-yl-ethyl)-1H-imidazol-2-yl]-piperidin-1-yl}-5,7-dihydro-pyrrolo[2,3-d]pyrimidin-6-one]
IC50 [1]: 13.9 µM

IC50 [5]: 3.4 µM | IC50 [7]: 6.2 µM | IC50 [8]: 4.9 µM | IC50 [10]: 7.9 µM | IC50 [12]: > 10 µM | IC50 [13]: 7.5 µM | IC50 [16]: 5.9 µM
Compound: CN(C)CCn1cc(-c2ccc(F)c(C(F)(F)F)c2)nc1C1CCN(c2ncnc3c2CC(=O)N3)CC1 [Example 45, 4-{4-[1-(2-Dimethylamino-ethyl)-4-(4-fluoro-3-trifluoromethyl-phenyl)-1H-imidazol-2-yl]piperidin-1-yl}-5,7-dihydro-pyrrolo[2,3-d]-pyrimidin-6-one]
COMBINATION INDEX AT 50% INHIBITION [2]: 0.41 | COMBINATION INDEX AT 50% INHIBITION [3]: 0.33 | COMBINATION INDEX AT 50% INHIBITION ([4]; combination with Cetuximab): 2.02 | COMBINATION INDEX AT 50% INHIBITION ([4]; combination with Irinotecan): 0.82 | COMBINATION INDEX AT 50% INHIBITION ([6]; combination with Cisplatin): 1.04 and 0.64 | COMBINATION INDEX AT 50% INHIBITION ([6]; combination with Doxorubicin•HCl): 0.65 and 0.96 | COMBINATION INDEX AT 50% INHIBITION ([9]; combination with Cisplatin): 0.58 | COMBINATION INDEX AT 50% INHIBITION ([9]; combination with Erlotinib): 0.43 | COMBINATION INDEX AT 50% INHIBITION ([9]; combination with Gemcitabine): 0.87 | COMBINATION INDEX AT 50% INHIBITION ([11]; combination with Cisplatin): 0.56 | COMBINATION INDEX AT 50% INHIBITION ([11]; combination with Docetaxel): 0.67 | COMBINATION INDEX AT 50% INHIBITION ([11]; combination with Erlotinib): 0.38 | COMBINATION INDEX AT 50% INHIBITION ([11]; combination with Gemcitabine): 0.86 | COMBINATION INDEX AT 50% INHIBITION ([11]; combination with Pemetrexed): 0.97 | IC50 [14]: 9.4 µM | IC50 [15]: 2.3 µM | IC50 [17]: 6.3 µM | COMBINATION INDEX AT 50% INHIBITION [18]: 0.12 | COMBINATION INDEX AT 50% INHIBITION ([19]; combination with Cisplatin): 0.57 | COMBINATION INDEX AT 50% INHIBITION ([19]; combination with Docetaxel): 0.94 | COMBINATION INDEX AT 50% INHIBITION ([19]; combination with Erlotinib): 0.10 | COMBINATION INDEX AT 50% INHIBITION ([19]; combination with Gemcitabine): 1.13 | COMBINATION INDEX AT 50% INHIBITION ([19]; combination with Tasisulam): 1.19

From patent publication US8148387B2, “AKT and P70 S6 kinase inhibitors” (Eli Lilly and Company, priority 2008, dated 2012)
